The structures appear in SMILES notation.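 Values below derive from 48-hour exposures of cells grown in 96-well plates, with endpoints linearly interpolated between the two concentrations bracketing the appropriate inhibition level. The concentration for 50% growth inhibition is given as GI50.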 Activity calls are given as the source filed them. Cut-off read from the data, not from the text of the source: active = GI50 up to about 1.1 µM and inactive = higher.

Experimental findings from ChEMBL document CHEMBL1201862, “PubChem BioAssay data set” (2004) are described below.

Among the test systems are DU-145; SR; HOP-62; RPMI-8226; T47D; NCI/ADR-RES; NCI-H522; CAKI-1; K562; M14; CCRF-CEM; NCI-H460; Malme-3M; OVCAR-3; A549; OVCAR-4; HCT-15; SNB-75; EKVX; UO-31.
Test in all cases: NCI-60 cell line screen, 48 h

`C=CCc1cccc2cc(C(=O)Nc3ccccc3)c(=N)oc12`: the GI50 in the test on DU-145 is > 100 µM (inactive); in the test with SR, > 100 µM (inactive); in the test with HOP-62, > 100 µM (inactive); in the test with RPMI-8226, > 100 µM (inactive); in the test with T47D, 11.9 µM (inactive); in the test on NCI/ADR-RES, > 100 µM (inactive). In addition, the GI50 in the test with NCI-H522 is 10.4 µM (inactive); in the test with CAKI-1 it was 63.2 µM (inactive); in the test on K562 it was 64 µM (inactive); in the test with M14 it was 60.7 µM (inactive); in the test with CCRF-CEM, > 100 µM (inactive); in the test on NCI-H460, 63.2 µM (inactive). For the same compound, the GI50 in the test with Malme-3M was 7.14 µM (inactive); in the test on OVCAR-3, > 100 µM (inactive); in the test with A549, 15 µM (inactive); with OVCAR-4, 15.6 µM (inactive); in the test on HCT-15 it was 33.6 µM; with SNB-75, 52.4 µM (inactive).
Turning to `S=C1c2cc(Cl)ccc2N=C(NC2CCCC2)C2CSCN12` (stereo unspecified), the GI50 with DU-145 is > 100 µM (inactive); in the test with SR, > 60.1 µM (inactive); with HOP-62, > 100 µM (inactive); in the test on RPMI-8226 it was > 63.8 µM (inactive); in the test on T47D, > 55 µM (inactive); in the test on NCI/ADR-RES, 98.6 µM (inactive). In addition, the GI50 in the test on NCI-H522 was > 100 µM (inactive); in the test with CAKI-1, > 100 µM (inactive); in the test with K562, > 68.7 µM (inactive); in the test on M14, > 78 µM (inactive); in the test with EKVX it was > 91 µM (inactive); in the test on UO-31, > 100 µM (inactive). Also, the GI50 in the test with CCRF-CEM is > 69.5 µM (inactive); in the test with NCI-H460 it was > 100 µM (inactive); in the test on Malme-3M, > 100 µM (inactive); in the test on OVCAR-3, > 68.7 µM (inactive); in the test with A549, > 84.9 µM (inactive); in the test with OVCAR-4 it was > 100 µM (inactive). Also, the GI50 with HCT-15 is greater than 100 µM; in the test on SNB-75 it was 99.3 µM (inactive).
Regarding `COC1(c2ccccc2)N=C(S)NN=C1c1ccccc1` (stereo unspecified), the GI50 is 32.8 µM (inactive) in the test with DU-145; 29.4 µM (inactive) in the test with SR; 44.8 µM (inactive) with HOP-62; 38.9 µM (inactive) in the test on RPMI-8226; 33.5 µM (inactive) with T47D; 19.1 µM (inactive) in the test on NCI/ADR-RES. The GI50 was 24.9 µM (inactive) in the test on NCI-H522; 73.8 µM (inactive) in the test on CAKI-1; 33.4 µM (inactive) in the test on K562; 27.5 µM (inactive) in the test with M14; 89.9 µM (inactive) in the test on EKVX; > 100 µM (inactive) with UO-31. Besides, the GI50 was 28.2 µM (inactive) in the test with CCRF-CEM; 27.5 µM (inactive) in the test with NCI-H460; 60.4 µM (inactive) in the test with Malme-3M; 30.9 µM (inactive) with OVCAR-3; 45.2 µM (inactive) in the test on A549; 24.3 µM in the test with HCT-15. In addition, the GI50 in the test on SNB-75 is 38.5 µM (inactive).
Regarding `S=C(CSc1ccccc1)Nc1cccc2ccccc12`, the GI50 in the test on DU-145 was > 100 µM (inactive); in the test with SR, 22.5 µM (inactive); in the test with HOP-62, 77.3 µM (inactive); with RPMI-8226, 35.6 µM (inactive); in the test with T47D it was 40.3 µM (inactive); in the test on NCI/ADR-RES it was 46 µM (inactive). Besides, the GI50 with NCI-H522 is 20.9 µM (inactive); with CAKI-1 it was 59 µM (inactive); in the test on K562 it was 40.2 µM (inactive); in the test with M14 it was 54.2 µM (inactive); with EKVX, 58.9 µM (inactive); in the test with UO-31, 46.2 µM (inactive). In addition, the GI50 in the test on NCI-H460 is 29.9 µM (inactive); with Malme-3M, 40.3 µM (inactive); in the test with OVCAR-3, 20.8 µM (inactive); with A549, 42 µM (inactive); in the test with OVCAR-4 it was 21.6 µM (inactive); with HCT-15, 48.4 µM. Besides, the GI50 in the test on SNB-75 is > 100 µM (inactive).
For `Cn1c2ccccc2c2c3c(c4c5ccccc5n(C)c4c21)C(=O)NC3=O`, the GI50 with DU-145 is > 100 µM (inactive); with SR, < 0.01 µM (active); with HOP-62, 12.2 µM (inactive); with RPMI-8226, > 51.9 µM (inactive); with T47D it was 46.1 µM (inactive); with NCI/ADR-RES, > 45.3 µM (inactive). Besides, the GI50 in the test with NCI-H522 is 21.2 µM (inactive); in the test on CAKI-1, 0.0256 µM (active); in the test with K562, > 54.6 µM (inactive); in the test with M14, > 41.3 µM (inactive); with EKVX, 10.9 µM (inactive); in the test on UO-31, > 54.2 µM (inactive). For the same compound, the GI50 is > 100 µM (inactive) with CCRF-CEM; 7.6 µM (inactive) in the test with NCI-H460; 20.5 µM (inactive) with Malme-3M; > 19.7 µM (inactive) with A549; 5.3 µM (inactive) in the test with OVCAR-4; greater than 100 µM in the test with HCT-15. The GI50 with SNB-75 was 29 µM (inactive).
As for `CCN(CCCl)c1ccc(NC(=O)c2cc(C(=O)NCCN(C)C)cc(C(=O)Nc3ccc(N(CC)CCCl)cc3)c2)cc1`, the GI50 with DU-145 is 8.41 µM (inactive); in the test with SR it was 0.659 µM (active); in the test on HOP-62, 1.82 µM (inactive); in the test on RPMI-8226, 3.46 µM (inactive); in the test on T47D it was 18.7 µM (inactive); with NCI/ADR-RES it was > 100 µM (inactive). In addition, the GI50 in the test with NCI-H522 was 2.3 µM (inactive); in the test on CAKI-1, 27.5 µM (inactive); in the test with K562, 2.09 µM (inactive); in the test with M14, 9.38 µM (inactive); in the test with UO-31, > 100 µM (inactive); with CCRF-CEM, 0.0687 µM (active). For the same compound, the GI50 was 0.713 µM (active) in the test with NCI-H460; 13.6 µM (inactive) in the test on Malme-3M; 6.24 µM (inactive) with A549; 9.38 µM (inactive) with OVCAR-4; 51.1 µM in the test with HCT-15; 8.55 µM (inactive) in the test on SNB-75.
As to `O=C(/C=C/c1ccc(O)c(O)c1)c1cc(O)cc(O)c1`, the GI50 was 18.1 µM (inactive) in the test on DU-145; 5.24 µM (inactive) in the test with SR; 21.4 µM (inactive) with HOP-62; 71.6 µM (inactive) in the test with RPMI-8226; 10.5 µM (inactive) in the test with T47D; 16.1 µM (inactive) in the test on NCI/ADR-RES. For the same compound, the GI50 with NCI-H522 is 1.71 µM (inactive); in the test on CAKI-1, > 100 µM (inactive); with M14 it was 14 µM (inactive); in the test on EKVX, 20.6 µM (inactive); with UO-31, 10.6 µM (inactive); with CCRF-CEM it was 2 µM (inactive). The GI50 with Malme-3M is 14.4 µM (inactive); with OVCAR-3 it was 13.2 µM (inactive); in the test on A549, > 100 µM (inactive); with OVCAR-4 it was 10.4 µM (inactive); in the test on HCT-15, 15.7 µM; in the test on SNB-75 it was 12.2 µM (inactive).
In the case of `CC(C)C12CCC3(CCC4C(C)(C(=O)O)CCCC4(C)C3C1)C(CN)C2` (stereo unspecified), the GI50 is 38.6 µM (inactive) with DU-145; 25.9 µM (inactive) with SR; 74.6 µM (inactive) with HOP-62; 19.3 µM (inactive) with RPMI-8226; 55.2 µM (inactive) in the test with T47D; 37.6 µM (inactive) in the test on NCI/ADR-RES. Further, the GI50 in the test with NCI-H522 was 23.8 µM (inactive); in the test on CAKI-1, 35.4 µM (inactive); in the test with M14, 30.4 µM (inactive); with EKVX it was 32.2 µM (inactive); in the test on UO-31, 40.4 µM (inactive); with CCRF-CEM, 0.388 µM (active). The GI50 with NCI-H460 is 21.5 µM (inactive); in the test with Malme-3M, 45 µM (inactive); in the test with OVCAR-3, 40.1 µM (inactive); in the test on A549, 30.1 µM (inactive); with OVCAR-4 it was 67.9 µM (inactive); with HCT-15, 31.9 µM. The GI50 with SNB-75 is 88.5 µM (inactive).
Take `Cc1cc(O)c(C(c2ccncc2)c2c(O)cc(C)[nH]c2=O)c(=O)[nH]1`: the GI50 in the test with DU-145, in the test on SR, in the test on HOP-62, in the test on RPMI-8226, in the test with T47D and in the test with NCI/ADR-RES was > 100 µM (inactive) each time. In addition, the GI50 with NCI-H522 is > 100 µM (inactive); with CAKI-1, 5.12 µM (inactive); in the test with K562, > 100 µM (inactive); in the test on M14, > 100 µM (inactive); with EKVX, > 100 µM (inactive); in the test on UO-31 it was > 100 µM (inactive). The GI50 with CCRF-CEM, with NCI-H460, in the test with Malme-3M, with OVCAR-3, in the test with A549 and with OVCAR-4 was > 100 µM (inactive) each time. Also, the GI50 in the test with HCT-15 is greater than 100 µM.
`O=C(NC12CC3CC(CC(C3)C1)C2)n1cnc2c(Cl)ncnc21`: the GI50 in the test with DU-145 is 24.3 µM (inactive); in the test with SR, 10.8 µM (inactive); in the test on HOP-62, 37.5 µM (inactive); with RPMI-8226 it was 40.7 µM (inactive); with T47D, > 100 µM (inactive); with NCI/ADR-RES, > 100 µM (inactive). Also, the GI50 in the test with NCI-H522 is 27.9 µM (inactive); in the test on CAKI-1, > 100 µM (inactive); in the test with K562, 25.8 µM (inactive); in the test on M14, 23.1 µM (inactive); in the test with EKVX, 25.8 µM (inactive); with UO-31 it was > 100 µM (inactive). Besides, the GI50 in the test on CCRF-CEM was 7.71 µM (inactive); in the test with NCI-H460, 28 µM (inactive); in the test with Malme-3M, > 100 µM (inactive); in the test on OVCAR-3, 22.7 µM (inactive); in the test on A549 it was 38.4 µM (inactive); with HCT-15 it was 35 µM. The GI50 in the test with SNB-75 was 27.4 µM (inactive).
`CSc1c(C#N)c(O)n(-c2ccc(Cl)cc2)c(=O)c1C#N`: the GI50 with DU-145 was > 100 µM (inactive); in the test with SR, > 100 µM (inactive); in the test with RPMI-8226, 39.5 µM (inactive); in the test on T47D it was 64.9 µM (inactive); in the test on NCI/ADR-RES, 77.3 µM (inactive); in the test on NCI-H522, 40.5 µM (inactive). Further, the GI50 is 49.4 µM (inactive) in the test on CAKI-1; 35.6 µM (inactive) with K562; > 100 µM (inactive) in the test on M14; > 100 µM (inactive) with EKVX; 72.9 µM (inactive) with UO-31; > 100 µM (inactive) in the test with NCI-H460. The GI50 was > 100 µM (inactive) in the test with Malme-3M; > 100 µM (inactive) in the test on OVCAR-3; 80.4 µM (inactive) in the test with A549; > 100 µM (inactive) in the test with OVCAR-4; 97.9 µM in the test on HCT-15; > 100 µM (inactive) with SNB-75.
